Patent US20030186967A1, “Acylresorcinol derivatives are selective vitronectin receptor inhibitors” (American Home Products Corporation, priority 1998, published 2003)

Biological target: T1, Vitronectin receptor αVβ3 (Homo sapiens, UniProt P05106+P06756)
T1 construct: expressed in transfected cells; host or cells: 512P5 cells (plasma membrane preparation)
Experiment: Vitronectin Receptor αVβ3 Binding Assay
Conditions: read-out: VnR (IC50μM)

T1 sequence (P06756 31-889 limits assumed): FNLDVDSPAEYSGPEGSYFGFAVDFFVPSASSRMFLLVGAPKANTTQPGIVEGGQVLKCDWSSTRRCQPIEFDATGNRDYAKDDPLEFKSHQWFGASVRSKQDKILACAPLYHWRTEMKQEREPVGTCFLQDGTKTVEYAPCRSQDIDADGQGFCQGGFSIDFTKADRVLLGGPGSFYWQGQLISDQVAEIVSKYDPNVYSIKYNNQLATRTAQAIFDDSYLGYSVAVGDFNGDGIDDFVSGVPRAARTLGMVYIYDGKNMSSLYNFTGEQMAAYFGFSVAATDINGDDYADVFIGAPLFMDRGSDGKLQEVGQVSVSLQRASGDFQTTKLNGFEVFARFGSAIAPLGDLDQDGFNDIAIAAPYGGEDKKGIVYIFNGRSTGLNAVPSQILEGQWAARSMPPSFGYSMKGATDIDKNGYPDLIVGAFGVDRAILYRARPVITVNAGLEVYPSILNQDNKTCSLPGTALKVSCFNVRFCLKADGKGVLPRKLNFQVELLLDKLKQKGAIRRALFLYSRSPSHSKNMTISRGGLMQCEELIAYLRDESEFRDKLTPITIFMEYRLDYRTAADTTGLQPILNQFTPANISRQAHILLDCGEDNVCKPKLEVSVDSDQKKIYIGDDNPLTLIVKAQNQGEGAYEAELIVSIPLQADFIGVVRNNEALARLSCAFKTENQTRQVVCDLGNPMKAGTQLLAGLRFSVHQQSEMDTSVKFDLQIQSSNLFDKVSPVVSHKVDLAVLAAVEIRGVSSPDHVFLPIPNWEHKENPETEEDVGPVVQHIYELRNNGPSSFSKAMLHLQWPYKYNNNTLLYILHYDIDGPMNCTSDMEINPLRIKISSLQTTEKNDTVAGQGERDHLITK
T1 sequence (P06756 891-1048 partner limits assumed): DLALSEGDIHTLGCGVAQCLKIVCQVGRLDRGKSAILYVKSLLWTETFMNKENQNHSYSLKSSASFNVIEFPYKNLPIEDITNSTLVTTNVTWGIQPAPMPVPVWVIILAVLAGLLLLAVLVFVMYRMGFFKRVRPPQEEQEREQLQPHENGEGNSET
T1 sequence (P05106 27-788): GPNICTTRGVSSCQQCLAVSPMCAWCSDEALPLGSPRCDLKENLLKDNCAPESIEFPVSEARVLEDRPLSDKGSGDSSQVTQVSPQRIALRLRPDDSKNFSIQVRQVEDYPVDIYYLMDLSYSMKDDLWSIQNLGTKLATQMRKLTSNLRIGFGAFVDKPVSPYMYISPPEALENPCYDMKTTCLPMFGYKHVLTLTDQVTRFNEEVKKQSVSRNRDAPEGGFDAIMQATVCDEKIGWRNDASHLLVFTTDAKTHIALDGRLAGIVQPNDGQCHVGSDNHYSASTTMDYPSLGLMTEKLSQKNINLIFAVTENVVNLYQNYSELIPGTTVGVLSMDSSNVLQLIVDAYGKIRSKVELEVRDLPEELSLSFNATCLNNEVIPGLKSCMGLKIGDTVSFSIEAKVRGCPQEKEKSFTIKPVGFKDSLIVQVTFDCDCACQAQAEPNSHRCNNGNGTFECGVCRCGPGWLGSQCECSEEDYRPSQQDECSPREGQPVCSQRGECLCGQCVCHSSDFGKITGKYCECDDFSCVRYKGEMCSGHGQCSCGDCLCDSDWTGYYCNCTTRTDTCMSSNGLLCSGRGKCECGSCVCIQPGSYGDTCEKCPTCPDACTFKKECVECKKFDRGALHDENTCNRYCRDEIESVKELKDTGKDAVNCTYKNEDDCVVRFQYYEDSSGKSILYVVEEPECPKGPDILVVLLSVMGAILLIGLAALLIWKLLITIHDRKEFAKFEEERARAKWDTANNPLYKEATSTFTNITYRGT

Structure (SMILES) | IC50 [µM]
Cc1ccc(NC(=O)N[C@@H](CNC(=O)c2ccc(OCCNC(=N)N)cc2O)C(=O)O)cc1 [Example 178, (2S)-3-{[4-(2-{[amino(imino)methyl]amino}ethoxy)-2-hydroxybenzoyl]amino}-2-[(4-toluidinocarbonyl)amino]propanoic acid] | 3.13
N=C(N)NCCOc1ccc(C(=O)NC[C@H](NC(=O)Nc2ccc(OC(F)(F)F)cc2)C(=O)O)c(O)c1 [Example 179, (2S)-3-{[4-(2-{[amino(imino)methyl]amino}ethoxy)-2-hydroxybenzoyl]amino}-2-({[4-(trifluoromethoxy)anilino]carbonyl}amino)propanoic acid] | > 1
N=C(N)NCCOc1ccc(C(=O)NC[C@H](NC(=O)Nc2ccc(F)cc2)C(=O)O)c(O)c1 [Example 181, (2S)-3-{[4-(2-{[amino(imino)methyl]amino}ethoxy)-2-hydroxybenzoyl]amino}-2-{[(4-fluoroanilino)carbonyl]amino}propanoic acid] | 19.7
CC(=O)c1ccc(NC(=O)N[C@@H](CNC(=O)c2ccc(OCCNC(=N)N)cc2O)C(=O)O)cc1 [Example 182, (2S)-2-{[(4-acetylanilino)carbonyl]amino}-3-{[4-(2-{[amino(imino)methyl]-amino}ethoxy)-2-hydroxybenzoyl]amino}propanoic acid] | 40.9
N=C(N)NCCOc1ccc(C(=O)NC[C@H](NC(=O)NC2CCCCC2)C(=O)O)c(O)c1 [Example 183, (2S)-3-{[4-(2-{[amino(imino)methyl]amino}ethoxy)-2-hydroxybenzoyl]amino}-2-{[(cyclohexylamino)carbonyl]amino}propanoic acid] | 4.98
N=C(N)NCCOc1ccc(C(=O)NC[C@H](NC(=O)Nc2cccc3ccccc23)C(=O)O)c(O)c1 [Example 184, (2S)-3-{[4-(2-{[amino(imino)methyl]amino}ethoxy)-2-hydroxybenzoyl]amino}-2-{[(1-naphthylamino)carbonyl]amino}propanoic acid] | 17.9
N=C(N)NCCOc1ccc(C(=O)NC[C@H](NC(=O)NCc2ccccc2)C(=O)O)c(O)c1 [Example 185, (2S)-3-{[4-(2-{[amino(imino)methyl]amino}ethoxy)-2-hydroxybenzoyl]amino}-2-{[(benzylamino)carbonyl]amino}propanoic acid] | 4.57
COc1ccc(NC(=O)N[C@@H](CNC(=O)c2ccc(OCCNC(=N)N)cc2O)C(=O)O)cc1 [Example 188] | 12.1
CCCCCC(=O)N[C@@H](CNC(=O)c1ccc(OCCNC(=N)N)cc1O)C(=O)O [Example 192, (2S)-3-{[4-(2-{[amino(imino)methyl]amino}ethoxy)-2-hydroxybenzoyl]amino}-2-(hexanoylamino)propanoic acid] | > 1
CC(C)(C)CC(=O)N[C@@H](CNC(=O)c1ccc(OCCNC(=N)N)cc1O)C(=O)O [Example 194] | > 1
N=C(N)NCCOc1ccc(C(=O)NC[C@H](NC(=O)Cc2ccccc2)C(=O)O)c(O)c1 [Example 199, (2S)-3-{[4-(2-{[amino(imino)methyl]amino}ethoxy)-2-hydroxybenzoyl]amino}-2-[(2-phenylacetyl)amino]propanoic acid] | 14.7
N=C(N)NCCOc1ccc(C(=O)NC[C@H](NC(=O)CC2CCCCC2)C(=O)O)c(O)c1 [Example 201, (2S)-3-{[4-(2-{[amino(imino)methyl]amino}ethoxy)-2-hydroxybenzoyl]amino}-2-[(2-cyclohexylacetyl)amino]propanoic acid] | 13.2
N=C(N)NCCOc1ccc(C(=O)NC[C@H](NC(=O)/C=C/c2ccccc2)C(=O)O)c(O)c1 [Example 202, (2S)-3-{[4-(2-{[amino(imino)methyl]amino}ethoxy)-2-hydroxybenzoyl]amino}-2-{[(E)-3-phenylprop-2-enoyl]amino}propanoic acid] | > 1
COc1ccccc1C(=O)N[C@@H](CNC(=O)c1ccc(OCCNC(=N)N)cc1O)C(=O)O [Example 205, (2S)-3-{[4-(2-{[amino(imino)methyl]amino}ethoxy)-2-hydroxybenzoyl]amino}-2-[(2-methoxybenzoyl)amino]propanoic acid] | > 1
N=C(N)NCCOc1ccc(C(=O)NC[C@H](NC(=O)c2cccnc2)C(=O)O)c(O)c1 [Example 209, (2S)-3-{[4-(2-{[amino(imino)methyl]amino}ethoxy)-2-hydroxybenzoyl]amino}-2-[(pyridin-3-ylcarbonyl)amino]propanoic acid] | > 1
N=C(N)NCCOc1ccc(C(=O)NC[C@H](NC(=O)c2ccncc2)C(=O)O)c(O)c1 [Example 210, (2S)-3-{[4-(2-{[amino(imino)methyl]amino}ethoxy)-2-hydroxybenzoyl]amino}-2-(isonicotinoylamino)propanoic acid] | > 1
Cc1cc(C(=O)N[C@@H](CNC(=O)c2ccc(OCCNC(=N)N)cc2O)C(=O)O)c(C)o1 [Example 211, (2S)-3-{[4-(2-{[amino(imino)methyl]amino}ethoxy)-2-hydroxybenzoyl]amino}-2-[(2,5-dimethyl-3-furoyl)amino]propanoic acid] | > 1

Second part, the compound after the results:

IC50 [µM] | Structure (SMILES)
19.5 | N=C(N)NCCOc1ccc(C(=O)NC[C@H](NC(=O)Nc2ccc(Cl)cc2)C(=O)O)c(O)c1 [Example 180, (2S)-3-{[4-(2-{[amino(imino)methyl]amino}ethoxy)-2-hydroxybenzoyl]amino}-2-{[(4-chloroanilino)carbonyl]amino}propanoic acid]
6.99 | N=C(N)NCCOc1ccc(C(=O)NC[C@H](NC(=O)NCCc2ccccc2)C(=O)O)c(O)c1 [Example 186]
19.5 | CCCCCCCCNC(=O)N[C@@H](CNC(=O)c1ccc(OCCNC(=N)N)cc1O)C(=O)O [Example 187, (2S)-3-{[4-(2-{[amino(imino)methyl]amino}ethoxy)-2-hydroxybenzoyl]amino}-2-{[(octylamino)carbonyl]amino}propanoic acid]
6.87 | N=C(N)NCCOc1ccc(C(=O)NC[C@H](NC(=O)Nc2ccccc2)C(=O)O)c(O)c1 [Example 189, (2S)-3-{[4-(2-{[amino(imino)methyl]amino}ethoxy)-2-hydroxybenzoyl]amino}-2-[(anilinocarbonyl)amino]propanoic acid]
> 1 | CC(C)C(=O)N[C@@H](CNC(=O)c1ccc(OCCNC(=N)N)cc1O)C(=O)O [Example 190, (2S)-3-{[4-(2-{[amino(imino)methyl]amino}ethoxy)-2-hydroxybenzoyl]amino}-2-(isobutyrylamino)propanoic acid]
> 1 | CCCC(=O)N[C@@H](CNC(=O)c1ccc(OCCNC(=N)N)cc1O)C(=O)O [Example 191, (2S)-3-{[4-(2-{[amino(imino)methyl]amino}ethoxy)-2-hydroxybenzoyl]amino}-2-(butyrylamino)propanoic acid]
> 1 | CCCCC(=O)N[C@@H](CNC(=O)c1ccc(OCCNC(=N)N)cc1O)C(=O)O [Example 193, (2S)-3-{[4-(2-{[amino(imino)methyl]amino}ethoxy)-2-hydroxybenzoyl]amino}-2-(pentanoylamino)propanoic acid]
> 1 | CC1(C)C(C(=O)N[C@@H](CNC(=O)c2ccc(OCCNC(=N)N)cc2O)C(=O)O)C1(C)C [Example 195, (2S)-3-{[4-(2-{[amino(imino)methyl]amino}ethoxy)-2-hydroxybenzoyl]amino}-2-{[(2,2,3,3-tetramethylcyclopropyl)carbonyl]amino}propanoic acid]
5.71 | N=C(N)NCCOc1ccc(C(=O)NC[C@H](NC(=O)CC23CC4CC(CC(C4)C2)C3)C(=O)O)c(O)c1 [Example 196, (2S)-2-{[2-(1-adamantyl)acetyl]amino}-3-{[4-(2-{[amino(imino)methyl]amino}-ethoxy)-2-hydroxybenzoyl]amino}propanoic acid]
> 1 | C#CCCC(=O)N[C@@H](CNC(=O)c1ccc(OCCNC(=N)N)cc1O)C(=O)O [Example 197, (2S)-3-{[4-(2-{[amino(imino)methyl]amino}ethoxy)-2-hydroxybenzoyl]amino}-2-(pent-4-ynoylamino)propanoic acid]
> 1 | N=C(N)NCCOc1ccc(C(=O)NC[C@H](NC(=O)C2CCCCC2)C(=O)O)c(O)c1 [Example 198, (2S)-3-{[4-(2-{[amino(imino)methyl]amino}ethoxy)-2-hydroxybenzoyl]amino}-2-[(cyclohexylcarbonyl)amino]propanoic acid]
> 1 | N=C(N)NCCOc1ccc(C(=O)NC[C@H](NC(=O)CCc2ccccc2)C(=O)O)c(O)c1 [Example 200, (2S)-3-{[4-(2-{[amino(imino)methyl]amino}ethoxy)-2-hydroxybenzoyl]amino}-2-[(3-phenylpropanoyl)amino]propanoic acid]
14.1 | N=C(N)NCCOc1ccc(C(=O)NC[C@H](NC(=O)c2ccccc2Cl)C(=O)O)c(O)c1 [Example 203, (2S)-3-{[4-(2-{[amino(imino)methyl]amino}ethoxy)-2-hydroxybenzoyl]amino}-2-[(2-chlorobenzoyl)amino]propanoic acid]
7.48 | Cc1ccccc1C(=O)N[C@@H](CNC(=O)c1ccc(OCCNC(=N)N)cc1O)C(=O)O [Example 204, (2S)-3-{[4-(2-{[amino(imino)methyl]amino}ethoxy)-2-hydroxybenzoyl]amino}-2-[(2-methylbenzoyl)amino]propanoic acid]
> 1 | N=C(N)NCCOc1ccc(C(=O)NC[C@H](NC(=O)c2ccc(Cl)cc2)C(=O)O)c(O)c1 [Example 206, (2S)-3-{[4-(2-{[amino(imino)methyl]amino}ethoxy)-2-hydroxybenzoyl]amino}-2-[(4-chlorobenzoyl)amino]propanoic acid]
> 1 | Cc1ccc(C(=O)N[C@@H](CNC(=O)c2ccc(OCCNC(=N)N)cc2O)C(=O)O)cc1 [Example 207, (2S)-3-{[4-(2-{[amino(imino)methyl]amino}ethoxy)-2-hydroxybenzoyl]amino}-2-[(4-methylbenzoyl)amino]propanoic acid]
> 1 | COc1ccc(C(=O)N[C@@H](CNC(=O)c2ccc(OCCNC(=N)N)cc2O)C(=O)O)cc1 [Example 208, (2S)-3-{[4-(2-{[amino(imino)methyl]amino}ethoxy)-2-hydroxybenzoyl]amino-}-2-[(4-methoxybenzoyl)amino]propanoic acid]
